Measurements from patent US10869878B2, “Vaginal composition and use thereof” (SINGAPORE ZE&Z INTERNATIONAL PTE. LTD, priority 2014, dated 2020).

Columns and labels:
Format in all cases: cell-based
BV-associated bacteria [1] = assay: Acid production by BV-associated bacteria in carbohydrate containing gels, slightly aerobic incubation (Experimental Example 1); settings: 1% (w/v) carbohydrate gel
Source text: (1) Grouping in experiment: • (1) Isomaltulose group: containing 1% (w/v) isomaltulose, MRS basal medium without carbohydrate, 5% (w/v) calf serum, and 0.5% (w/v) xanthan gum, pH5.4; • (2) Isomaltose group: containing 1% (w/v) isomaltose, MRS basal medium without carbohydrate, 5% (w/v) calf serum, and 0.5% (w/v) xanthan gum, pH5.4; • (3) Sucrose group: containing 1% (w/v) sucrose, MRS basal medium without carbohydrate, 5% (w/v) calf serum, and 0.5% (w/v) xanthan gum, pH5.4; and • (4) Maltose group: containing 1% (w/v) maltose, MRS basal medium without carbohydrate, 5% (w/v) calf serum, and 0.5% (w/v) xanthan gum, pH5.4.
The gel of each group was formulated essentially following the method described in Composition Example 1, then sterilized, added with calf serum, and packed in test tubes in a specification of 5 g/tube, for late use.
(§1) (2) Secretion specimens from BV patients: vaginal secretions from 5 BV patients; and the criteria of inclusion are: • (1) conforming to the Amsel clinical criteria of BV diagnosis, wherein the pH value of the vaginal secretions was >4.6; • (2) after smearing, Gram staining and microscopical examination of vaginal secretions, Nugent score ≥7; and • (3) no other vaginosis and no antimicrobial agent is used within two weeks.
(3) After sampling, the secretion specimens from BV patients meeting the criteria of inclusion were immediately inoculated to the above 4 gels containing a carbohydrate, and slightly aerobically incubated at 37° C. for 46 hrs. The pH values of the gel matrices are detected with a precise pH test paper respectively at 14 hrs, 36 hrs, and 46 hrs.

BV-associated bacteria [2] = assay: Acid production by BV-associated bacteria, carbohydrates and antibacterial agents in combination (Experimental Example 3); settings: anaerobic, 37° C., 1.5% (w/v) carbohydrate, initial pH 5.4
Source text: (1) Grouping in experiment: • (1) Sucrose-preservative group: containing 1.5% (w/v) sucrose, 0.5% (w/v) sodium propionate, 0.025% (w/v) sodium dehydroacetate, MRS basal medium without carbohydrate, 5% (w/v) calf serum, and 0.45% (w/v) agar, pH5.4; • (2) Isomaltose-preservative group: containing 1.5% (w/v) isomaltose, 0.5% (w/v) sodium propionate, 0.025% (w/v) sodium dehydroacetate, MRS basal medium without carbohydrate, 5% (w/v) calf serum, and 0.45% (w/v) agar, pH5.4; • (3) Isomaltulose-preservative group: containing 1.5% (w/v) isomaltulose, 0.5% (w/v) sodium propionate, 0.025% (w/v) sodium dehydroacetate, MRS basal medium without carbohydrate, 5% (w/v) calf serum, and 0.45% (w/v) agar, pH5.4; • (4) Sucrose control group: containing 1.5% (w/v) sucrose, MRS basal medium without carbohydrate, 5% (w/v) calf serum, and 0.45% (w/v) agar, pH5.4; • (5) Isomaltose control group: containing 1.5% (w/v) isomaltose, MRS basal medium without carbohydrate, 5% (w/v) calf serum, and 0.45% (w/v) agar, pH5.4; and • (6) Isomaltulose control group: containing 1.5% (w/v) isomaltulose, MRS basal medium without carbohydrate, 5% (w/v) calf serum, and 0.45% (w/v) agar, pH5.4.
The semi-solid agar of each group is formulated essentially following the method described in Composition Example 1, then sterilized, added with calf serum, and packed in test tubes in a specification of 5 g/tube, for late use.
as §1, with “2” for “5”, “staining,” for “staining”, “vaginosis,” for “vaginosis”
(3) After sampling, the vaginal secretion specimens from BV patients meeting the criteria of inclusion were immediately inoculated to 3 semi-solid agars containing a carbohydrate and a preservative and 3 control agars at the bedside, and anaerobically incubated at 37° C. for […]. The pH values of the agar matrices are detected with a precise pH test paper after 30 or 32 hrs and 40 or 48 hrs of incubation.

[3] = tested on: Lactobacilli in the secretions from BV patients; assay: Selective promotion of carbohydrate containing gels for the growth of Lactobacilli, 16s rDNA identification (Experimental Example 4); settings: secretions from 20 BV patients; 1% (w/v) carbohydrate gel, 48 hrs slightly aerobic
Procedure: (§2) (3) After sampling, the vaginal secretion specimens from BV patients meeting the criteria of inclusion were immediately inoculated to the above 4 gels containing a carbohydrate, slightly aerobically incubated at 37° C. for 48 hrs, then transferred to a plate containing improved MRS with 1% (w/v) glucose and 5% (w/v) calf serum, slightly aerobically incubated for 20-48 hrs, isolated, purified and multiplied. The strain was identified by 16s rDNA sequencing.

[4] = tested on: Bifidobacteria in the secretions from BV patients; assay: Selective promotion of carbohydrate containing gels for the growth of Bifidobacteria (Experimental Example 4); settings: secretions from 20 BV patients; 1% (w/v) carbohydrate gel, 48 hrs slightly aerobic
Procedure: as §2

[5] = tested on: Gardnerella vaginalis in the secretions from BV patients; assay: Selective promotion of carbohydrate containing gels for the growth of Gardnerella vaginalis (Experimental Example 4); settings: secretions from 20 BV patients; 1% (w/v) carbohydrate gel, 48 hrs slightly aerobic
Procedure: as §2

Canidia albicans = assay: Metabolization of carbohydrates by Canidia albicans, residual carbohydrate by HPLC (Experimental Example 5); settings: 72 hrs aerobic, 37° C., initial 1.5% (w/v) carbohydrate, pH 7.0, detection limit 0.05% (w/v)
Procedure: (1) Grouping in experiment:
(2) Test strain: 2 strains of Canidia albicans, isolated from patients with candidal vaginitis.
The supernatant was separated by centrifugation, and packed in a specification of 5 ml/tube. The carbohydrate content in each tube was detected by HPLC.

[6] = Specimen 1, 14 hrs, slightly aerobic, 37° C., initial pH 5.4
[7] = Specimen 1, 46 hrs, slightly aerobic, 37° C., initial pH 5.4
[8] = Specimen 2, 14 hrs, slightly aerobic, 37° C., initial pH 5.4
[9] = Specimen 2, 46 hrs, slightly aerobic, 37° C., initial pH 5.4
[10] = Specimen 3, 14 hrs, slightly aerobic, 37° C., initial pH 5.4
[11] = Specimen 3, 36 hrs, slightly aerobic, 37° C., initial pH 5.4
[12] = Specimen 4, 14 hrs, slightly aerobic, 37° C., initial pH 5.4
[13] = Specimen 4, 36 hrs, slightly aerobic, 37° C., initial pH 5.4
[14] = Specimen 5, 14 hrs, slightly aerobic, 37° C., initial pH 5.4
[15] = Specimen 5, 36 hrs, slightly aerobic, 37° C., initial pH 5.4

Row | Structure (SMILES) | pH of the gel (BV-associated bacteria [1]; Specimen 1, 0 hr (initial)) | pH of the gel (BV-associated bacteria [1]; [6]) | pH of the gel (BV-associated bacteria [1]; [7]) | pH of the gel (BV-associated bacteria [1]; Specimen 2, 0 hr (initial)) | pH of the gel (BV-associated bacteria [1]; [8]) | pH of the gel (BV-associated bacteria [1]; [9]) | pH of the gel (BV-associated bacteria [1]; Specimen 3, 0 hr (initial)) | pH of the gel (BV-associated bacteria [1]; [10]) | pH of the gel (BV-associated bacteria [1]; [11]) | pH of the gel (BV-associated bacteria [1]; Specimen 4, 0 hr (initial)) | pH of the gel (BV-associated bacteria [1]; [12]) | pH of the gel (BV-associated bacteria [1]; [13]) | pH of the gel (BV-associated bacteria [1]; Specimen 5, 0 hr (initial)) | pH of the gel (BV-associated bacteria [1]; [14]) | pH of the gel (BV-associated bacteria [1]; [15]) | pH of the semi-solid agar (BV-associated bacteria [2]; Specimen 1 (30 hrs)) | pH of the semi-solid agar (BV-associated bacteria [2]; Specimen 2 (32 hrs)) | samples positive for Lactobacilli, In total [3] | total number of samples positive for L. amylovorus incubation [3] | total number of samples positive for L. crispatus incubation [3] | also measured
1 | OC[C@H]1O[C@@](CO)(O[C@H]2O[C@H](CO)[C@@H](O)[C@H](O)[C@H]2O)[C@@H](O)[C@@H]1O [Sucrose, sucrose] | 5.4 | ≤3.8 | ≤3.8 | 5.4 | 4.4 | ≤3.8 | 5.4 | 4.8-5.1 | 4.4-4.6 | 5.4 | 4.8-5.1 | ≤3.8 | 5.4 | 4.4-4.6 | 4.4-4.6 | 3.8 | 3.8 | 9 | 1 | 1 | total number of samples positive for L. gasseri incubation [3]: 2; total number of samples positive for L. iners incubation [3]: 0; total number of samples positive for L. jensenii incubation [3]: 4; total number of samples positive for L. mucosae incubation [3]: 1; number of samples positive for Bifidobacterium bifidum [4]: 0; number of samples positive for Bifidobacterium breve [4]: 0; number of samples positive for Bifidobacterium dentium [4]: 0; number of samples positive for Bifidobacterium longum [4]: 0; samples positive for Bifidobacteria, In total [4]: 0; number of samples positive for Gardnerella vaginalis [5]: 3 (8, 15, 19); samples positive for Gardnerella vaginalis, In total [5]: 3; residual carbohydrate content by HPLC (Canidia albicans; Canidia albicans 1): 1.04 g %; residual carbohydrate content by HPLC (Canidia albicans; Canidia albicans 2): 0.95 g %
2 | OC[C@H]1O[C@H](OC[C@H]2OC(O)(CO)[C@@H](O)[C@@H]2O)[C@H](O)[C@@H](O)[C@@H]1O (stereo partly drawn) [Isomaltulose, isomaltulose] | 5.4 | ≤3.8 | ≤3.8 | 5.4 | 4.1 | ≤3.8 | 5.4 | 3.8-4.1 | ≤3.8 | 5.4 | 4.1 | ≤3.8 | 5.4 | 4.1-4.4 | ≤3.8 | 3.8 | 3.8 | 9 | 1 | 1 | total number of samples positive for L. gasseri incubation [3]: 2; total number of samples positive for L. iners incubation [3]: 0; total number of samples positive for L. jensenii incubation [3]: 4^1; total number of samples positive for L. mucosae incubation [3]: 1; number of samples positive for Bifidobacterium bifidum [4]: 0; number of samples positive for Bifidobacterium breve [4]: 0; number of samples positive for Bifidobacterium dentium [4]: 0; number of samples positive for Bifidobacterium longum [4]: 0; samples positive for Bifidobacteria, In total [4]: 0; number of samples positive for Gardnerella vaginalis [5]: 2 (15, 19); samples positive for Gardnerella vaginalis, In total [5]: 2; residual carbohydrate content by HPLC (Canidia albicans; Canidia albicans 1): 0.11 g %; residual carbohydrate content by HPLC (Canidia albicans; Canidia albicans 2): 0.12 g %
3 | OC[C@H]1O[C@H](OC[C@H]2OC(O)[C@H](O)[C@@H](O)[C@@H]2O)[C@H](O)[C@@H](O)[C@@H]1O (stereo partly drawn) [Isomaltose, isomaltose] | 5.4 | 3.8 | ≤3.8 | 5.4 | 4.1-4.4 | ≤3.8 | 5.4 | 4.1-4.4 | ≤3.8 | 5.4 | 4.4 | ≤3.8 | 5.4 | 4.1-4.4 | 4.1-4.4 | 3.8 | 3.8-4.1 | 9 | 1 | 1 | total number of samples positive for L. gasseri incubation [3]: 2; total number of samples positive for L. iners incubation [3]: 0; total number of samples positive for L. jensenii incubation [3]: 4; total number of samples positive for L. mucosae incubation [3]: 1; number of samples positive for Bifidobacterium bifidum [4]: 0; number of samples positive for Bifidobacterium breve [4]: 0; number of samples positive for Bifidobacterium dentium [4]: 0; number of samples positive for Bifidobacterium longum [4]: 0; samples positive for Bifidobacteria, In total [4]: 0; number of samples positive for Gardnerella vaginalis [5]: 2 (15, 19); samples positive for Gardnerella vaginalis, In total [5]: 2; residual carbohydrate content by HPLC (Canidia albicans; Canidia albicans 1): 0.74 g %; residual carbohydrate content by HPLC (Canidia albicans; Canidia albicans 2): 0.76 g %
